Measurements published in US9616063B2, “1-[2-(aminomethyl)benzyl]-2-thioxo-1,2,3,5-tetrahydro-4H-pyrrolo[3,2-d]pyrimidin-4-ones as inhibitors of myeloperoxidase” (AstraZeneca AB, priority 2014, dated 2017).

What was measured:
[1] = molecular target: baculovirus-expressed recombinant human TPO (Homo sapiens (Human), UniProt P07202); assay: TPO inhibition (hypoiodous acid production, absorbance at 353 nm); format: biochemical
Procedure: To detect thyroid peroxidase (TPO) inhibitory activity, the production of hypoiodous acid (HOI) was quantified. HOI was detected by reacting it with methionine, which is converted to dehydro-methionine, which in turn is detected by reacting it with excess iodide at acidic pH. The reaction converts I^− to I3^− that has absorbance at 353 nm. In brief, 0.6 μL compound serially diluted in DMSO was added to 25 μL 50 nM baculovirus-expressed recombinant human TPO (obtained from RSR Ltd, Cardiff, UK) in assay buffer (100 mM Na2HPO4/NaH2PO4, pH 7.4), after which absorbance at 353 nm was read to obtain a blank value. The enzyme reaction was initiated by the addition of 25 μL of a mix consisting of 2 mM methionine, 20 μM NaI and 100 μM H2O2 in assay buffer, and stopped by the addition of 10 μL catalase, 0.25 mg/mL. […] IC50 values of the compounds tested were obtained using standard procedures.

[2] = test system: MPO purified from the human cell line HL60; assay: MPO inhibition, Test A (loss of ascorbate, absorbance at 260 nm); format: biochemical; settings: ratio TPO to MPO, selectivity for MPO over TPO
Procedure: (§1) Methods for the determination of MPO inhibitory activity are disclosed in WO 02/090575. The pharmacological activity of compounds disclosed herein was tested in the following screen (Test A) in which the compounds were tested in the presence of ascorbate, which reacts with MPO-derived hypochlorous acid (HOCl) to form dehydro-ascorbate. The loss of ascorbate is followed by measuring absorbance at 260 nm.
(§2) Assay buffer: 100 μM diethyl triamine pentaacetic acid (DTPA) in buffer consisting of 10 mM Na2HPO4/NaH2PO4, 3 mM KCl in 140 mM NaCl, pH 7.4.
(§3) Enzyme solution: MPO purified from the human cell line HL60, 1.38 nM (final concentration 0.7 nM) and L-ascorbate, 100 μM (final concentration 50 μM) in Assay buffer
(§4) Substrate solution: H2O2, 98 μM (final concentration 49 μM) Forty μL of the enzyme solution was added to 0.6 μL compound serially diluted in DMSO. Absorbance was measured at 260 nm to obtain a compound blank value. After an additional 10 min, 40 μL of the substrate solution was added and the absorbance at 260 nm was recorded between 4 and 40 min to obtain kinetic readings of enzyme activity.

[3] = molecular target: MPO purified from the human cell line HL60 (Homo sapiens (Human), UniProt P05164); assay: as above; format: biochemical; settings: absorbance at 260 nm 20 minutes after substrate addition
Procedure: as §1, §2, §3, §4

[4] = Plasma urate levels in Healthy Volunteers after MPO inhibitor treatment (clinical trial); format: in vivo, human; settings: daily dose for 10 days, FIG. 2, NCT00914303
Procedure: Subjects received placebo or the indicated daily dose for 10 days, and the difference in plasma urate levels versus baseline was calculated. Each symbol represents one subject.

activated MPO = activated MPO (Homo sapiens (Human), UniProt P05164); assay: Urate production from xanthine by activated MPO in vitro (LC-MS); format: biochemical; settings: activated MPO incubated with xanthine and titrated compound for 80 min
Excerpt: The dotted line represents the urate formed in the presence of unactivated MPO.
In addition to MPOs role in maintaining elevated urate levels due to poor perfusion as discussed above, we also propose that MPO per se may generate urate by oxidizing xanthine in concert with xanthine oxidase.

[5] = healthy subjects, clinical trial, data not shown; cited from earlier work

baculovirus-expressed recombinant human TPO, sequence (P07202 19-933): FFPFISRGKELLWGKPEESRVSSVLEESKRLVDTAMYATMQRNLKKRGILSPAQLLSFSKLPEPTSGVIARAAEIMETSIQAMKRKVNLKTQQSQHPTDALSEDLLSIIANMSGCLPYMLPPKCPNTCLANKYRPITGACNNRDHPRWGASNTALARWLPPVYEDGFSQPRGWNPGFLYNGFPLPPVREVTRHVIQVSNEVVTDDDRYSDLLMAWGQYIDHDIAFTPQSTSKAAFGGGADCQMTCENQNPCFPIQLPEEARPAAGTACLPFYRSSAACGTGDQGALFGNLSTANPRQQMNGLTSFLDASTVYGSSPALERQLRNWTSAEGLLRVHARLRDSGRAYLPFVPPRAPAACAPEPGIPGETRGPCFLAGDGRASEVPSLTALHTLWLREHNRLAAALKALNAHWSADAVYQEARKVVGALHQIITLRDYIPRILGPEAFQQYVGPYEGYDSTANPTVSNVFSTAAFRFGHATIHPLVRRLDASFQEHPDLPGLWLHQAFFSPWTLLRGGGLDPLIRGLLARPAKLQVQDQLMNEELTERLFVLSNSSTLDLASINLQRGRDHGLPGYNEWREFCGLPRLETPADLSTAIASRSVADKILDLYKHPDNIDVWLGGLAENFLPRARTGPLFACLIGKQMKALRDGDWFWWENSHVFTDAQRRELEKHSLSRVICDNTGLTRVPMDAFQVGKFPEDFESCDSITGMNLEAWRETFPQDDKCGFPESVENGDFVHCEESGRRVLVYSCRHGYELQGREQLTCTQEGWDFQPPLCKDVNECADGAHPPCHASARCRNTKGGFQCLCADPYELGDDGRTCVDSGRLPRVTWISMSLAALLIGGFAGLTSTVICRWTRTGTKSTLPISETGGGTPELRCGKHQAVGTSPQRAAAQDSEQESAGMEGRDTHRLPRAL
MPO purified from the human cell line HL60 (Homo sapiens (Human), UniProt P05164), sequence (P05164 whole entry, looked up, change not shown): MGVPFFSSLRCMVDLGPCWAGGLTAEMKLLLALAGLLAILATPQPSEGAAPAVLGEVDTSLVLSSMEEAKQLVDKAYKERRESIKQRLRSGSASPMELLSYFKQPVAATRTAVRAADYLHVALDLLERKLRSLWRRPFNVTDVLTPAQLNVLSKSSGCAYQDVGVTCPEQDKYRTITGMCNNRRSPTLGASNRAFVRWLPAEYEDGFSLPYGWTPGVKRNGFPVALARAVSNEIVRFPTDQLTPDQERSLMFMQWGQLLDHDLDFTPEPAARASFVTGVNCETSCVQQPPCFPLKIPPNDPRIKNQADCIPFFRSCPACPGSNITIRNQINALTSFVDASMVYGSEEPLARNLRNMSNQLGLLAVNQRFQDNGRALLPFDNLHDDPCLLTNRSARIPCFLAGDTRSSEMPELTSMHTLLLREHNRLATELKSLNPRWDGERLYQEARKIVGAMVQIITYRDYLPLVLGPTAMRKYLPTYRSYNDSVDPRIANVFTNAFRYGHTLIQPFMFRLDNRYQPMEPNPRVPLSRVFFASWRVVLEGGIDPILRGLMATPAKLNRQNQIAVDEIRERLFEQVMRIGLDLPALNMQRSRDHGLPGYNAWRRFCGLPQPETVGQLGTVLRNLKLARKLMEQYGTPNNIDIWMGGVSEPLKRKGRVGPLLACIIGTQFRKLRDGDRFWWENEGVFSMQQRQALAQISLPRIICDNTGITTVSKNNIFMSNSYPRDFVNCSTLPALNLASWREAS
MPO purified from the human cell line HL60 (Homo sapiens (Human), UniProt P05164), sequence (P05164 whole entry, looked up, change not shown): as above
activated MPO, sequence (P05164 49-745): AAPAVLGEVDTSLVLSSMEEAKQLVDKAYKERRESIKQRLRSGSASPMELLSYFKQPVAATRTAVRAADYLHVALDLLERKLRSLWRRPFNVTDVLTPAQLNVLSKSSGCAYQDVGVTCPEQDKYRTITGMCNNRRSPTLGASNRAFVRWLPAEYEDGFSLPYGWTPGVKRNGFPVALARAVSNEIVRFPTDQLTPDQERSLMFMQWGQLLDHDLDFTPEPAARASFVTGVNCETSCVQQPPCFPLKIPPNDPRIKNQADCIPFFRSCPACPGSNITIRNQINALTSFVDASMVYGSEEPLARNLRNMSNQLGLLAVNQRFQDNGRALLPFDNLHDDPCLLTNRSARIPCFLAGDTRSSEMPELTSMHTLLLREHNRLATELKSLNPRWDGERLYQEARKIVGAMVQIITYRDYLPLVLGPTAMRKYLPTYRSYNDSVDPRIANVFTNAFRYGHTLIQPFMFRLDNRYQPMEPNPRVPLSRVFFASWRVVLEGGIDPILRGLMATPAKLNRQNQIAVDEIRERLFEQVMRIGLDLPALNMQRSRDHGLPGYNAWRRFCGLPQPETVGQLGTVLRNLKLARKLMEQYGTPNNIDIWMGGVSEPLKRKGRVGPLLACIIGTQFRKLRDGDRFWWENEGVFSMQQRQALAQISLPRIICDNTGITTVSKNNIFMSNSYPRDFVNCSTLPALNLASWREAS

## C[C@H](N)c1cc(Cl)ccc1Cn1c(=S)[nH]c(=O)c2[nH]ccc21 [Example 4b, 1-{2-[(1S)-1-Aminoethyl]-4-chlorobenzyl}-2-thioxo-1,2,3,5-tetrahydro-4H-pyrrolo[3,2-d]pyrimidin-4-one]
[1]
  IC50: 68 µM

## O=c1[nH]c(=S)n(Cc2ccccc2CNCC2CCC2)c2cc[nH]c12 [Example 9, 1-(2-{[(Cyclobutylmethyl)amino]methyl}benzyl)-2-thioxo-1,2,3,5-tetrahydro-4H-pyrrolo[3,2-d]pyrimidin-4-one]
[2]
  IC50 (TPO)/IC50 (MPO): 552
[3]
  IC50: 0.029 µM
[1]
  IC50: 16 µM

## O=c1[nH]c(=S)n(Cc2ccccc2CNC2CCC2)c2cc[nH]c12 [Example 10, 1-{2-[(Cyclobutylamino)methyl]benzyl}-2-thioxo-1,2,3,5-tetrahydro-4H-pyrrolo[3,2-d]pyrimidin-4-one]
[2]
  IC50 (TPO)/IC50 (MPO): 1100
[3]
  IC50: 0.01 µM
[1]
  IC50: 11 µM

## CC(C)OCCn1c(=S)[nH]c(=O)c2[nH]ccc21 [AZD3241]
[4]
  reduction of plasma urate levels versus baseline: dose-dependently reduced urate levels

## O=c1[nH]c(=S)n(Cc2ccccc2CNC2CCCC2)c2cc[nH]c12 [Example 11, 1-{2-[(Cyclopentylamino)methyl]benzyl}-2-thioxo-1,2,3,5-tetrahydro-4H-pyrrolo[3,2-d]pyrimidin-4-one]
[2]
  IC50 (TPO)/IC50 (MPO): 1357
[3]
  IC50: 0.014 µM
[1]
  IC50: 19 µM

## CNCc1cc(Cl)ccc1Cn1c(=S)[nH]c(=O)c2[nH]ccc21 [Example 8, 1-{4-Chloro-2-[(methylamino)methyl]benzyl}-2-thioxo-1,2,3,5-tetrahydro-4H-pyrrolo[3,2-d]pyrimidin-4-one]
[2]
  IC50 (TPO)/IC50 (MPO): 952
[3]
  IC50: 0.013 µM
[1]
  IC50: 13 µM

## C[C@@H](N)c1cc(Cl)ccc1Cn1c(=S)[nH]c(=O)c2[nH]ccc21 [Example 3, 1-{2-[(1R)-1-Aminoethyl]-4-chlorobenzyl}-2-thioxo-1,2,3,5-tetrahydro-4H-pyrrolo[3,2-d]pyrimidin-4-one]
Activated MPO
  inhibition of urate production by activated MPO: concentration-dependently inhibited
[1]
  IC50: 4.3 µM

## CC[C@@H](N)c1cc(Cl)ccc1Cn1c(=S)[nH]c(=O)c2[nH]ccc21 [Example 1, 1-{2-[(1R)-1-Aminopropyl]-4-chlorobenzyl}-2-thioxo-1,2,3,5-tetrahydro-4H-pyrrolo[3,2-d]pyrimidin-4-one]
[2]
  IC50 (TPO)/IC50 (MPO): 512
[3]
  IC50: 0.0086 µM
[1]
  IC50: 4.4 µM

## CC(C)CNCc1ccccc1Cn1c(=S)[nH]c(=O)c2[nH]ccc21 [Example 12, 1-(2-{[(2-Methylpropyl)amino]methyl}benzyl)-2-thioxo-1,2,3,5-tetrahydro-4H-pyrrolo[3,2-d]pyrimidin-4-one]
[2]
  IC50 (TPO)/IC50 (MPO): 852
[3]
  IC50: 0.054 µM
[1]
  IC50: 46 µM

## NCc1cc(C(F)(F)F)ccc1Cn1c(=S)[nH]c(=O)c2[nH]ccc21 [Example 14, 1-[2-(Aminomethyl)-4-(trifluoromethyl)benzyl]-2-thioxo-1,2,3,5-tetrahydro-4H-pyrrolo[3,2-d]pyrimidin-4-one]
[2]
  IC50 (TPO)/IC50 (MPO): 697
[3]
  IC50: 0.04 µM
[1]
  IC50: 28 µM

## O=c1[nH]c(=S)n(C[C@H]2CCCO2)c2nc[nH]c12 [AZD5904]
[5]
  reduction of urate levels: dose-dependently reduced urate levels

## CCNCc1cc(Cl)ccc1Cn1c(=S)[nH]c(=O)c2[nH]ccc21 [Example 6, 1-{4-Chloro-2-[(ethylamino)methyl]benzyl}-2-thioxo-1,2,3,5-tetrahydro-4H-pyrrolo[3,2-d]pyrimidin-4-one]
[2]
  IC50 (TPO)/IC50 (MPO): 455
[3]
  IC50: 0.022 µM
[1]
  IC50: 10 µM

## CC(C)NCc1ccccc1Cn1c(=S)[nH]c(=O)c2[nH]ccc21 [Example 13, 1-{2-[(Propan-2-ylamino)methyl]benzyl}-2-thioxo-1,2,3,5-tetrahydro-4H-pyrrolo[3,2-d]pyrimidin-4-one]
[2]
  IC50 (TPO)/IC50 (MPO): 1609
[3]
  IC50: 0.024 µM
[1]
  IC50: 38 µM

## CC(N)c1cc(Cl)ccc1Cn1c(=S)[nH]c(=O)c2[nH]ccc21 (racemic) [Example 2, 1-[2-(1-Aminoethyl)-4-chlorobenzyl]-2-thioxo-1,2,3,5-tetrahydro-4H-pyrrolo[3,2-d]pyrimidin-4-one]
[1]
  IC50: 8.8 µM

## CNC(C)c1cc(Cl)ccc1Cn1c(=S)[nH]c(=O)c2[nH]ccc21 (stereo not shown) [Example 5, 1-{4-Chloro-2-[1-(methylamino)ethyl]benzyl}-2-thioxo-1,2,3,5-tetrahydro-4H-pyrrolo[3,2-d]pyrimidin-4-one]
[2]
  IC50 (TPO)/IC50 (MPO): 468
[3]
  IC50: 0.019 µM
[1]
  IC50: 8.9 µM

## NCc1cc(Cl)ccc1Cn1c(=S)[nH]c(=O)c2[nH]ccc21 [Example 7, 1-[2-(Aminomethyl)-4-chlorobenzyl]-2-thioxo-1,2,3,5-tetrahydro-4H-pyrrolo[3,2-d]pyrimidin-4-one]
[1]
  IC50: 11 µM

## CNCc1cc(C(F)(F)F)ccc1Cn1c(=S)[nH]c(=O)c2[nH]ccc21 [Example 15, 1-{2-[(Methylamino)methyl]-4-(trifluoromethyl)benzyl}-2-thioxo-1,2,3,5-tetrahydro-4H-pyrrolo[3,2-d]pyrimidin-4-one]
[2]
  IC50 (TPO)/IC50 (MPO): 224
[3]
  IC50: 0.049 µM
[1]
  IC50: 11 µM
